Measured values published in patent US12084416B2, “Substituted sulfonylurea derivatives” (Zydus Lifesciences Limited, priority 2019, dated 2024).
Like-named read-outs stand apart in the source and are kept apart here.

How the values were obtained:
IL-1β [1] = assay: In-vivo LPS and ATP induced IL-1β assay; conditions: Mus musculus, 2.5 h; Dose 10 mpk, po; female C57 mice; serum IL-1β by ELISA; read-out: % IL-1β inhibition in LPS + ATP challenged C57 mice
Experimental: All the animal experiments were carried out in female rats and mice, bred in-house. Animals were housed in groups of 6 animals per cage, for a week, in order to habituate them to vivarium conditions (25 f 4° C., 60-65% relative humidity, 12:12 h light:dark cycle, with lights on at 7.30 am). All the animal experiments were carried out according to the internationally valid guidelines following approval by the ‘Zydus Research Center animal ethical committee’.
Female C57 mice (6-8 weeks) received intraperitoneal injection of 50 μg/mouse of lipopolysaccharide (LPS) in PBS. Animals were treated immediately with the test compounds or the vehicle. After 2 h of LPS injection, animals were administered with ATP at 12.5 mg/mouse dissolved in PBS via intraperitoneal route. After 30 minutes of ATP injection, serum was collected for IL-1β estimation by ELISA.

IL-1β [2] = assay: In-vitro IL-1β inhibition assay in PMA-differentiated, LPS-primed, ATP-stimulated THP1 cells; format: cell-based; conditions: Homo sapiens
Experimental: THP1 monocytes were differentiated with PMA (100 ng/mL) and incubated at 37 deg C. for 20 hrs in presence of 5% CO2. 2×10^5 differentiated cells were plated per well of 96 well tissue culture plates. The cells were primed using 500 ng/mL Lipopolysaccharide and incubating for 4 h under the same condition. The cells were then treated with various concentrations of the compounds for 30 min followed by treatment with 5 mM ATP for 1 hr. The supernatants were collected and analyzed by IL-1b (Mabtech Cat #3415-1H-20) or TNF-α (Mabtech; Cat #3510-1H-20) detection kit. The data were analyzed using GraphPad Prism V7.0. Dose Response Curve (DRC) was constructed to determine the IC50 value by fitting percentage […] data to the GraphPad Prism using nonlinear regression analysis.

[3] = THP-1, THP1 monocytes differentiated with PMA, primed with 500 ng/mL LPS, compound 30 min, 5 mM ATP 1 hr, IL-1β in supernatant, read-out: IC50 (nM), invitro IL-1β inhibitory activity
[4] = THP-1, read-out: IC50 (nM), invitro IL-1β inhibitory activity

SMILES | IC50 (IL-1β [2]; [3]) [nM] | other results
O=C(Nc1c2c(cc3c1CCC3)CCC2)NS(=O)(=O)/C=C/[C@H]1CCCN1CC1CC1 [Example 5, (R,E)-2-(1-(cyclopropylmethyl)pyrrolidin-2-yl)-N-((1,2,3,5,6,7-hexahydro-s-indacen-4-yl)carbamoyl)ethene-1-sulfonamide] |  | inhibition in vivo at 10 mg/kg (IL-1β [1]): 70%
CC(C)N1CCC[C@@H]1/C=C/S(=O)(=O)NC(=O)Nc1c2c(cc3c1CCC3)CCC2 [Example 22, (R,E)-N-((1,2,3,5,6,7-hexahydro-s-indacen-4-yl)carbamoyl)-2-(1-isopropylpyrrolidin-2-yl)ethene-1-sulfonamide] |  | inhibition in vivo at 10 mg/kg (IL-1β [1]): 83%
O=C(Nc1c2c(cc3c1CCC3)CCC2)NS(=O)(=O)/C=C/[C@H]1CCCN1C1CCSCC1 [Example 40, (R,E)-N-((1,2,3,5,6,7-hexahydro-s-indacen-4-yl)carbamoyl)-2-(1-(tetrahydro-2H-thiopyran-4-yl)pyrrolidin-2-yl)ethene-1-sulfonamide] |  | inhibition in vivo at 10 mg/kg (IL-1β [1]): 86%
C[C@]1(/C=C/S(=O)(=O)NC(=O)Nc2c3c(cc4c2CCC4)CCC3)CCCN1S(C)(=O)=O [Example 55, (R,E)-N-((1,2,3,5,6,7-hexahydro-s-indacen-4-yl)carbamoyl)-2-(2-methyl-1-(methylsulfonyl)-pyrrolidin-2-yl)ethene-1-sulfonamide] |  | inhibition in vivo at 10 mg/kg (IL-1β [1]): 82.5%
CC(C)(C)OC(=O)N1CCC[C@@]1(C)/C=C/S(=O)(=O)NC(=O)Nc1c2c(cc3c1CCC3)CCC2 [Example 111, tert-butyl(S,E)-2-(2-(N-((1,2,3,5,6,7-hexahydro-s-indacen-4-yl)carbamoyl)sulfamoyl)vinyl)-2-methylpyrrolidine-1-carboxylate] | 4.3 | 
CC(C)(C)OC(=O)N1CC2CC(N3CCC[C@@H]3/C=C/S(=O)(=O)NC(=O)Nc3c4c(cc5c3CCC5)CCC4)CC2C1 (stereo partly drawn) [Example 131, tert-butyl 5-((R)-2-((E)-2-(N-((1,2,3,5,6,7-hexahydro-s-indacen-4-yl)carbamoyl)sulfamoyl)vinyl)pyrrolidin-1-yl)hexahydrocyclopenta[c]pyrrole-2 (1H)-carboxylate] | 16 | 
O=C(Nc1c2c(cc3c1CCC3)CCC2)NS(=O)(=O)/C=C/[C@H]1CCCN1C1CCSCC1 [Example 139, Sodium(R,E)-((1,2,3,5,6,7-hexahydro-s-indacen-4-yl)carbamoyl)((2-(1-(tetrahydro-2H-thiopyran-4-yl)pyrrolidin-2-yl)vinyl)sulfonyl)amide] |  | IC50 (IL-1β [2]; [4]): 21 nM
CN1CCC[C@@]1(C)/C=C/S(=O)(=O)NC(=O)Nc1c2c(cc3c1CCC3)CCC2 [Example 144, sodium(S,E)-((2-(1,2-dimethylpyrrolidin-2-yl)vinyl)sulfonyl)((1,2,3,5,6,7-hexahydro-s-indacen-4-yl)carbamoyl)amide] |  | IC50 (IL-1β [2]; [4]): 8.6 nM
CC(C)(C)OC(=O)N1CCC1(C)/C=C/S(=O)(=O)NC(=O)Nc1c2c(cc3c1CCC3)CCC2 (stereo not drawn) [Example 147, tert-butyl(E)-2-(2-(N-((1,2,3,5,6,7-hexahydro-s-indacen-4-yl)carbamoyl)sulfamoyl)vinyl)-2-methylazetidine-1-carboxylate] |  | IC50 (IL-1β [2]; [4]): 11 nM
CC[C@@]1(/C=C/S(=O)(=O)NC(=O)Nc2c3c(cc4c2CCC4)CCC3)CCCN1C(=O)OC(C)(C)C [Example 149, tert-butyl(S,E)-2-ethyl-2-(2-(N-((1,2,3,5,6,7-hexahydro-s-indacen-4-yl)carbamoyl)sulfamoyl)vinyl)pyrrolidine-1-carboxylate] |  | IC50 (IL-1β [2]; [4]): 11 nM
CN1CCC[C@@]1(C)/C=C/S(=O)(=O)NC(=O)Nc1cc2c(c3c1CCC3)CCC2 [Example 153, (S,E)-2-(1,2-dimethylpyrrolidin-2-yl)-N-((1,2,3,6,7,8-hexahydro-as-indacen-4-yl)carbamoyl)ethene-1-sulfonamide] |  | IC50 (IL-1β [2]; [4]): 32 nM

The next lines start with results.

IC50 (IL-1β [2]; [3]) [nM] | SMILES | other results
10.7 | CC(=O)N1CCC[C@@H]1/C=C/S(=O)(=O)NC(=O)Nc1c2c(cc3c1CCC3)CCC2 [Example 8, (R,E)-2-(1-acetylpyrrolidin-2-yl)-N-((1,2,3,5,6,7-hexahydro-s-indacen-4-yl)carbamoyl)-ethene-1-sulfonamide] | 
64 | CC(C)(C)OC(=O)N1CCC[C@@H]1/C=C/S(=O)(=O)NC(=O)Nc1c2c(cc3c1CCC3)CCC2 [Example 10, tert-butyl (R,E)-2-(2-(N-((1,2,3,5,6,7-hexahydro-s-indacen-4-yl)carbamoyl)sulfamoyl)-vinyl)pyrrolidine-1-carboxylate] | 
9 | O=C(Nc1c2c(cc3c1CCC3)CCC2)NS(=O)(=O)/C=C/[C@H]1CCCN1S(=O)(=O)c1cccc(F)c1 [Example 13, (R,E)-2-(1-((3-fluorophenyl)sulfonyl)pyrrolidin-2-yl)-N-((1,2,3,5,6,7-hexahydro-s-indacen-4-yl)carbamoyl)ethenesulfonamide] | 
17 | O=C(Nc1c2c(cc3c1CCC3)CCC2)NS(=O)(=O)/C=C/[C@H]1CCCN1C(=O)c1cnccn1 [Example 14, (R,E)-N-((1,2,3,5,6,7-hexahydro-s-indacen-4-yl)carbamoyl)-2-(1-(pyrazine-2-carbonyl)pyrrolidin-2-yl)ethenesulfonamide] | 
2.4 | CCS(=O)(=O)N1CCC[C@@H]1/C=C/S(=O)(=O)NC(=O)Nc1c2c(cc3c1CCC3)CCC2 [Example 21, (R,E)-2-(1-(ethylsulfonyl)pyrrolidin-2-yl)-N-((1,2,3,5,6,7-hexahydro-s-indacen-4-yl)carbamoyl)ethene-1-sulfonamide] | 
14 | CS(=O)(=O)CCCN1CCC[C@@H]1/C=C/S(=O)(=O)NC(=O)Nc1c2c(cc3c1CCC3)CCC2 [Example 23, (R,E)-N-((1,2,3,5,6,7-hexahydro-s-indacen-4-yl)carbamoyl)-2-(1-(3-(methylsulfonyl)propyl)pyrrolidin-2-yl)ethenesulfonamide] | 
8 | O=C(Nc1c2c(cc3c1CCC3)CCC2)NS(=O)(=O)/C=C/[C@@H]1CCCN1S(=O)(=O)c1cccnc1 [Example 63, (S,E)-N-((1,2,3,5,6,7-hexahydro-s-indacen-4-yl)carbamoyl)-2-(1-(pyridin-3-ylsulfonyl)-pyrrolidin-2-yl)ethenesulfonamide] | 
87 | O=C(Nc1c2c(cc3c1CCC3)CCC2)NS(=O)(=O)/C=C/C1CCOCC1 [Example 71, (E)-N-((1,2,3,5,6,7-hexahydro-s-indacen-4-yl)carbamoyl)-2-(tetrahydro-2H-pyran-4-yl)ethenesulfonamide] | 
8.5 | CS(=O)(=O)N1CCCC(/C=C/S(=O)(=O)NC(=O)Nc2c3c(cc4c2CCC4)CCC3)C1 (stereo not drawn) [Example 84, (E)-N-((1,2,3,5,6,7-hexahydro-s-indacen-4-yl)carbamoyl)-2-(1-(methylsulfonyl)piperidin-3-yl)ethenesulfonamide] | 
16 | O=C(Nc1c2c(cc3c1CCC3)CCC2)NS(=O)(=O)/C=C/[C@@H]1CCCN1S(=O)(=O)c1ccc(Cl)s1 [Example 90, (S,E)-2-(1-((5-chlorothiophen-2-yl)sulfonyl)pyrrolidin-2-yl)-N-((1,2,3,5,6,7-hexahydro-s-indacen-4-yl)carbamoyl)ethenesulfonamide] | 
2.9 | O=C(Nc1c2c(cc3c1CCC3)CCC2)NS(=O)(=O)/C=C/[C@@H]1CCCN1S(=O)(=O)Cc1ccccc1 [Example 91, (S,E)-2-(1-(benzylsulfonyl)pyrrolidin-2-yl)-N-((1,2,3,5,6,7-hexahydro-s-indacen-4-yl)carbamoyl)ethenesulfonamide] | 
70 | O=C(Nc1c2c(cc3c1CCC3)CCC2)NS(=O)(=O)/C=C/C1CCCCN1 (stereo not drawn) [Example 100, (E)-N-((1,2,3,5,6,7-hexahydro-s-indacen-4-yl)carbamoyl)-2-(piperidin-2-yl)ethene-1-sulfonamide] | 
61 | C[C@@]1(/C=C/S(=O)(=O)NC(=O)Nc2c3c(cc4c2CCC4)CCC3)CCCN1 [Example 105, (S,E)-N-((1,2,3,5,6,7-hexahydro-s-indacen-4-yl)carbamoyl)-2-(2-methylpyrrolidin-2-yl)ethene-1-sulfonamide] | 
16.4 | CC(=O)N1CCC1/C=C/S(=O)(=O)NC(=O)Nc1c2c(cc3c1CCC3)CCC2 (stereo not drawn) [Example 125, (E)-2-(1-acetylazetidin-2-yl)-N-((1,2,3,5,6,7-hexahydro-s-indacen-4-yl)carbamoyl)ethene-1-sulfonamide] | 
5.6 | C=CCN1CCC[C@H]1/C=C/S(=O)(=O)NC(=O)Nc1c2c(cc3c1CCC3)CCC2 [Example 127, (S,E)-2-(1-allylpyrrolidin-2-yl)-N-((1,2,3,5,6,7-hexahydro-s-indacen-4-yl)carbamoyl)ethene-1-sulfonamide] | 
5.9 | C[C@@]1(/C=C/S(=O)(=O)NC(=O)Nc2c3c(cc4c2CCC4)CCC3)CCCN1S(=O)(=O)C1CC1 [Example 129, (S,E)-2-(1-(cyclopropylsulfonyl)-2-methylpyrrolidin-2-yl)-N-((1,2,3,5,6,7-hexahydro-s-indacen-4-yl)carbamoyl)ethene-1-sulfonamide] | 
